Source: patent US9234000B2, “Benzylamine derivatives as inhibitors of plasma kallikrein” (KalVista Pharmaceuticals Limited, priority 2011, dated 2016)

Legend:
[1] = target: Human plasma kallikrein (Homo sapiens (Human), UniProt P03952); experiment: Determination of the IC50 for plasma kallikrein; format: biochemical; details: 37° C., substrate H-DPro-Phe-Arg-AFC, read-out: IC50 (human PKal)
Description: Determination of the IC50 for Plasma Kallikrein
(§1) Plasma kallikrein inhibitory activity in vitro was determined using standard published methods (see e.g. Johansen et al., Int. J. Tiss. Reac. 1986, 8, 185; Shori et al., Biochem. Pharmacol., 1992, 43, 1209; Stiirzebecher et al., Biol. Chem. Hoppe-Seyler, 1992, 373, 1025). Human plasma kallikrein (Protogen) was incubated at 37° C. with the fluorogenic substrate H-DPro-Phe-Arg-AFC and various concentrations of the test compound. Residual enzyme activity (initial rate of reaction) was determined by measuring the change in optical absorbance at 410 nm and the IC50 value for the test compound was determined.

[2] = target: Human KLK1 (Homo sapiens (Human), UniProt P06870); experiment: Determination of the IC50 for KLK1; format: biochemical; details: Human KLK1, 37° C., substrate H-DVal-Leu-Arg-AFC; Table 13
Human KLK1, sequence (P06870 25-262): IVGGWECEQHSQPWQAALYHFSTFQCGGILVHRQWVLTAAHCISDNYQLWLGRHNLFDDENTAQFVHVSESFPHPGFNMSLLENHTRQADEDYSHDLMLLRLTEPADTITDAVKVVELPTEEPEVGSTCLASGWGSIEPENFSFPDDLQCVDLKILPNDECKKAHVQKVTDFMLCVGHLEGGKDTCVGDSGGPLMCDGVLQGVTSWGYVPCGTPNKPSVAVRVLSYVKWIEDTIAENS
Description: Determination of the IC50 for KLK1
as §1, with “KLK1” for “Plasma kallikrein”, “Stürzebecher” for “Stiirzebecher”, “KLK1 (Callbiochem)” for “plasma kallikrein (Protogen)”, “H-DVal-Leu-Arg-AFC” for “H-DPro-Phe-Arg-AFC”

Human plasma kallikrein, sequence (P03952 391-638): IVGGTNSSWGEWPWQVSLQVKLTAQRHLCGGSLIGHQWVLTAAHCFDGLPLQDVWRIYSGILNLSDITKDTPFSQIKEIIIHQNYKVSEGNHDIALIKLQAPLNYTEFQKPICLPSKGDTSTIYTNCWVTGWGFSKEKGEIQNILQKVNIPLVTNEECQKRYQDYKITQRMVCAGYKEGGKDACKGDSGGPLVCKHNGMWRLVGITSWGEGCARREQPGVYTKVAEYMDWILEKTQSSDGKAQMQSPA
Human plasma kallikrein, sequence (P03952 20-390 partner): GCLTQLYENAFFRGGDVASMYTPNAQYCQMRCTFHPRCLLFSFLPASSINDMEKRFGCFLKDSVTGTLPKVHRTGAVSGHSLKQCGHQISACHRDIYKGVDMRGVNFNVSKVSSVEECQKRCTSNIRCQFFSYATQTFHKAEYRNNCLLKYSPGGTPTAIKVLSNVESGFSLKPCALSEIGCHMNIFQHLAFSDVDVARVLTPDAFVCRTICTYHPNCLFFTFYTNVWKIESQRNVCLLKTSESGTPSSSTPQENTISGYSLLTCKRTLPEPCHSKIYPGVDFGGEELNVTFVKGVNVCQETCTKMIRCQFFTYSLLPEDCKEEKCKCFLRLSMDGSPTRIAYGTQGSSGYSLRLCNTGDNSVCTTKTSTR

IC50 [1] [µM]	IC50 [2] [µM]	SMILES
0.427	> 10	CCOc1ccc(C[C@@H](NC(=O)c2ccc3nc(C)ccc3c2)C(=O)N[C@@H](Cc2ccccc2)C(=O)NCc2ccc(CN)cc2)cc1 [Example 114, 2-Methyl-quinoline-6-carboxylic acid [(R)-1-[(S)-1-(4-aminomethyl-benzylcarbamoyl)-2-phenyl-ethylcarbamoyl]-2-(4-ethoxy-phenyl)-ethyl]-amide]
0.417	9	CCOc1ccc(C[C@@H](NC(=O)c2cnc3cc(Cl)ccc3c2)C(=O)N[C@@H](Cc2ccccc2)C(=O)NCc2ccc(CN)cc2)cc1 [Example 115, 7-Chloro-quinoline-3-carboxylic acid [(R)-1-[(S)-1-(4-aminomethyl-benzylcarbamoyl)-2-phenyl-ethylcarbamoyl]-2-(4-ethoxy-phenyl)-ethyl]-amide]
0.048	6.1	CCOc1ccc(C[C@@H](NC(=O)c2scnc2C)C(=O)N[C@@H](Cc2ccccc2)C(=O)NCc2ccc(CN)cc2)cc1 [Example 117, 4-Methyl-thiazole-5-carboxylic acid[(R)-1-[(S)-1-(4-aminomethyl-benzylcarbamoyl)-2-phenyl-ethylcarbamoyl]-2-(4-ethoxy-phenyl)-ethyl]-amide]
0.061	> 10	CCOc1ccc(C[C@@H](NC(=O)c2ccco2)C(=O)N[C@@H](Cc2ccccc2)C(=O)NCc2ccc(CN)cc2)cc1 [Example 118, Furan-2-carboxylic acid [(R)-1-[(S)-1-(4-aminomethyl-benzylcarbamoyl)-2-phenyl-ethylcarbamoyl]-2-(4-ethoxy-phenyl)-ethyl]-amide]
0.54	> 10	CCOc1ccc(C[C@@H](NC(=O)c2cccc(OC)n2)C(=O)N[C@@H](Cc2ccccc2)C(=O)NCc2ccc(CN)cc2)cc1 [Example 120, 6-Methoxy-pyridine-2-carboxylic acid [(R)-1-[(S)-1-(4-aminomethyl-benzylcarbamoyl)-2-phenyl-ethylcarbamoyl]-2-(4-ethoxy-phenyl)-ethyl]-amide]
0.31	> 10	CCOc1ccc(C[C@@H](NC(=O)c2cncc(OC)c2)C(=O)N[C@@H](Cc2ccccc2)C(=O)NCc2ccc(CN)cc2)cc1 [Example 121, N-[(R)-1-[(S)-1-(4-Aminomethyl-benzylcarbamoyl)-2-phenyl-ethylcarbamoyl]-2-(4-ethoxy-phenyl)-ethyl]-5-methoxy-nicotinamide]
0.519	4.8	CCOc1ccc(C[C@@H](NC(=O)c2sccc2OC)C(=O)N[C@@H](Cc2ccccc2)C(=O)NCc2ccc(CN)cc2)cc1 [Example 122, 3-Methoxy-thiophene-2-carboxylic acid [(R)-1-[(S)-1-(4-aminomethyl-benzylcarbamoyl)-2-phenyl-ethylcarbamoyl]-2-(4-ethoxy-phenyl)-ethyl]-amide]
0.214	> 10	CCOc1ccc(C[C@@H](NC(=O)c2ccnc(OC)c2)C(=O)N[C@@H](Cc2ccccc2)C(=O)NCc2ccc(CN)cc2)cc1 [Example 123, N-[(R)-1-[(S)-1-(4-Aminomethyl-benzylcarbamoyl)-2-phenyl-ethylcarbamoyl]-2-(4-ethoxy-phenyl)-ethyl]-2-methoxy-isonicotinamide]
4.01	> 10	NCc1ccc(CNC(=O)[C@H](Cc2ccccc2)NC(=O)[C@@H](CC2CCCCC2)NC(=O)c2ccccc2)cc1 [Example 126, N-{(R)-1-[(S)-1-(4-Aminomethyl-benzylcarbamoyl)-2-phenyl-ethylcarbamoyl]-2-cyclohexyl-ethyl}-benzamide]
0.521	> 10	NCc1ccc(CNC(=O)[C@H](Cc2ccccc2)NC(=O)[C@@H](Cc2ccc(Cl)cc2)NC(=O)c2ccccc2)cc1 [Example 127, N-[(R)-1-[(S)-1-(4-Aminomethyl-benzylcarbamoyl)-2-phenyl-ethylcarbamoyl]-2-(4-chloro-phenyl)-ethyl]-benzamide]
2.01	> 10	NCc1ccc(CNC(=O)[C@H](Cc2ccccc2)NC(=O)[C@@H](Cc2ccc(OCc3ccc(Cl)cc3)cc2)NC(=O)c2ccccc2)cc1 [Example 128, N-{(R)-1-[(S)-1-(4-Aminomethyl-benzylcarbamoyl)-2-phenyl-ethylcarbamoyl]-2-[4-(4-chloro-benzyloxy)-phenyl]-ethyl}-benzamide]
10	> 10	NCc1ccc(CNC(=O)[C@H](Cc2ccccc2)NC(=O)[C@@H](Cc2ccc(O)cc2)NC(=O)c2ccccc2)cc1 [Example 129, N-[(R)-1-[(S)-1-(4-Aminomethyl-benzylcarbamoyl)-2-phenyl-ethylcarbamoyl]-2-(4-hydroxy-phenyl)-ethyl]-benzamide]
2.49	> 10	NCc1ccc(CNC(=O)[C@H](Cc2ccccc2)NC(=O)[C@@H](Cc2ccc(OCc3ccc(F)cc3)cc2)NC(=O)c2ccccc2)cc1 [Example 130, N-{(R)-1-[(S)-1-(4-Aminomethyl-benzylcarbamoyl)-2-phenyl-ethylcarbamoyl]-2-[4-(4-fluoro-benzyloxy)-phenyl]-ethyl}-benzamide]
10	> 10	CC(C)C[C@@H](NC(=O)c1ccccc1)C(=O)N[C@@H](Cc1ccccc1)C(=O)NCc1ccc(CN)cc1 [Example 133, N-{(R)-1-[(S)-1-(4-Aminomethyl-benzylcarbamoyl)-2-phenyl-ethylcarbamoyl]-3-methyl-butyl}-benzamide]
10	> 10	NCc1ccc(CNC(=O)[C@H](Cc2ccccc2)NC(=O)[C@@H](Cc2ccc(OCc3c(Cl)cccc3Cl)cc2)NC(=O)c2ccccc2)cc1 [Example 134, N-{(R)-1-[(S)-1-(4-Aminomethyl-benzylcarbamoyl)-2-phenyl-ethylcarbamoyl]-2-[4-(2,6-dichloro-benzyloxy)-phenyl]-ethyl}-benzamide]
0.424	> 10	Cc1ccc(C[C@@H](NC(=O)c2ccccc2)C(=O)N[C@@H](Cc2ccccc2)C(=O)NCc2ccc(CN)cc2)cc1 [Example 135, N-{(R)-1-[(S)-1-(4-Aminomethyl-benzylcarbamoyl)-2-phenyl-ethylcarbamoyl]-2-p-tolyl-ethyl}-benzamide]
1.02	> 10	NCc1ccc(CNC(=O)[C@H](Cc2ccccc2)NC(=O)[C@@H](Cc2ccc(OCc3cccc(F)c3)cc2)NC(=O)c2ccccc2)cc1 [Example 136, N-{(R)-1-[(S)-1-(4-Aminomethyl-benzylcarbamoyl)-2-phenyl-ethylcarbamoyl]-2-[4-(3-fluoro-benzyloxy)-phenyl]-ethyl}-benzamide]
7.54	> 10	COc1ccc(C[C@@H](NC(=O)c2ccccc2)C(=O)N[C@@H](Cc2ccccc2)C(=O)NCc2ccc(CN)cc2)cn1 [Example 137, N-[(R)-1-[(S)-1-(4-Aminomethyl-benzylcarbamoyl)-2-phenyl-ethylcarbamoyl]-2-(6-methoxy-pyridin-3-yl)-ethyl]-benzamide]
0.31	> 10	COc1ccc(C[C@@H](NC(=O)c2ccccc2)C(=O)N[C@@H](Cc2ccccc2)C(=O)NCc2ccc(CN)cc2)cc1 [Example 138, N-[(R)-1-[(S)-1-(4-Aminomethyl-benzylcarbamoyl)-2-phenyl-ethylcarbamoyl]-2-(4-methoxy-phenyl)-ethyl]-benzamide]
